Measurements as given in patent US11357739B2, “Pimarane diterpenoids for use in wound healing and angiogenesis” (UNIVERSITY OF SOUTH CAROLINA, priority 2017, dated 2022).

Columns and labels:
[1] = system: NHEKs; assay: In vitro scratch assay (cell migration, wound closure); type: cell-based, human
Experimental: (§1) Human umbilical vein endothelial cells (HUVECs), adult normal human epidermal keratinocytes (NHEKs), normal human dermal fibroblasts (NHDFs) and related media for cell culture including endothelial basal and growth medium-2 (EBM-2, EGM-2), keratinocyte basal and growth medium-2 (KBM-2, KGM™-2), fibroblast basal and growth medium (FBM, FGM™) were purchased from Lonza. Cells were incubated at 37° C. and 5% CO2 throughout the experiments. Phosphate-Buffered Saline (PBS), [3-(4,5-dimethylthiazol-2-yl)-5-(3-carboxymethoxyphenyl)-2-(4-sulfophenyl)-2H-tetrazolium (MTS) (Promega) colorimetric assay and growth factor reduced matrigel BD (Corning) were from Sigma-Aldrich. Culture-Insert 2 Well 24 IbiTreat was used for the scratch assay.
Cell migration of NHEKs was assessed through making a cell-free gap with a Culture-insert 2 well 24, consisting of two wells that were separated by a wall. A total of 70 μl of cell suspension comprising of 35×10^3 cell was applied in each well. Cells were given 24 hours to attach and reach confluency. Culture inserts were then removed, and cell debris was washed with PBS. The samples were supplemented with different concentration of the compound of interest in growth media and incubated at 37° C. and 5% CO2 for 20 hours. Images were taken every 4 hours using a phase contrast Nikon Eclipse Ti-E inverted microscope. Quantification of percent wound healing was performed by measuring the gap distance using the following formula:
[formula] in which Wn is the width of gap after every 4 hours and W0 is the initial width zero right after forming a scratch. Capillary Tube Formation

[2] = system: human umbilical vein endothelial cells (HUVECs); assay: Cytotoxicity assay (MTS), cell proliferation and viability; type: cell-based; settings: 24 hours of exposure, 0.1 to 1 μg/mL, vs control and DMSO vehicle control
Experimental: as §1
(§2) In order to determine cell viability, HUVECs, NHDFs, NHEKs were cultured in their respective growth media to reach 80% confluency. Cells were seeded at the density of 3×10^3 cell per 96 well plate in a total volume of 100 μl in each well. After seeding, the cells were incubated for 24 hours at 37° C. and 5% CO2 to allow for cell attachment. Media was changed and replaced with media supplemented with the desired concentration of the compound of interest (0.1, 0.5, 1 and 10 μg/mL), being first dissolved at 10,000 μg/mL in DMSO and subsequently diluted in culture media. The vehicle control was culture medium supplemented with DMSO 0.1% (Macron Fine Chemicals), representing the highest final concentration of DMSO used to dissolve the natural compound. Following 24 hours of incubation, […] and incubated for 2 hours. Colored formazan absorbance which was produced by bio-reduction of MTS tetrazolium compound in live cells was read at 490 nm using a Spectramax 190 spectrophotometer and cell proliferation was assessed. A standard calibration curve at different concentration of cells was prepared to correlate cell number to absorbance.

[3] = system: normal human dermal fibroblasts (NHDFs); assay: as above; type: cell-based; settings: 24 hours of exposure, 0.1 to 1 μg/mL, vs control and DMSO vehicle control
Experimental: as §1, §2

[4] = system: normal human epidermal keratinocytes (NHEKs); assay: as above; type: cell-based; settings: 24 hours of exposure, 0.1 to 1 μg/mL, vs control and DMSO vehicle control
Experimental: as §1, §2

[5] = system: HUVECs; assay: Capillary tube formation on matrigel; type: cell-based, human; settings: 1 μg/mL, 8 hours
Experimental: as §1
Matrigel was kept in a −20° C. freezer and thawed on ice overnight in a 4° C. refrigerator. A total of 50 μl of thawed matrigel was added to each well of pre-chilled 96-well plate and then incubated for 30 min at 37° C. to form a gel. Next, 100 μl of a HUVEC cell suspension (passage 2-6) in conditioned media (20000 cell/well), including the compound of this invention, was added to gel and incubated at 37° C. for 8 hours. The number of junctions in tubes was examined using a phase contrast inverted microscope (Invitrogen EVOS FL Auto Cell Imaging) and compared to the conditions with no compound (negative control) and VEGF growth factor (positive control).

C=CC1(C)CC2=CCC3C(C)(C)CCC(O)C3(C)C2CC1O (stereo not shown) [compound of FIG. 1]
migration during exposure time ([1]; 1 μg/mL, compared with untreated cells and 0.1 μg/mL): higheast migration
percentage of wound closure relative to non-treated control groups ([1]; 1 μg/mL, four hours post-treatment): ~10 fold
wound closure of NHEKs ([1]; 0.1 and 1 μg/mL, monitored for 20 hours, vs untreated control): significantly enhance the wound closure
cell toxicity (MTS) [2]: no cell toxicity
cell toxicity (MTS) [3]: no cell toxicity
cell toxicity (MTS) [4]: no cell toxicity
tube formation, more than the control (untreated cell) [5]: 60%
